Measurements from patent US20250011300A1, “PIPERAZINYLSULFONYLARYL COMPOUNDS FOR TREATMENT OF BACTERIAL INFECTIONS” (Hoffmann-La Roche Inc., priority 2021, published 2025).
≈ marks a conversion by molar mass, not a printed value.

Columns and labels:
[1] = test system: K. pneumonia (ATCC 43816); assay: Minimal Inhibitory Concentration (MIC) assay, K. pneumonia; type: cell-based; details: Klebsiella pneumoniae; K. pneumoniae ATCC43816, CAMHB, 20 hours at 35° C.; read-out: MIC K. pneumoniae ATCC43816
Outline: (§1)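 Broth microdilution in cation-adjusted Mueller Hinton broth, inoculum 5×10^5 CFU/mL, compounds 2-fold serially diluted from 10 mM DMSO stocks. Plates incubated 20 hours at 35° C in ambient air; MIC (μg/mL) is the lowest concentration preventing visible growth.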

[2] = molecular target: Escherichia coli LpxH (UDP-2,3-diacylglucosamine hydrolase) (Escherichia coli (strain K12), UniProt P43341); assay: 50% Inhibitory Concentration (IC50) to LpxH, UMP/CMP-Glo Glycosyltransferase Assay kit; type: biochemical
Chain of Escherichia coli LpxH (UDP-2,3-diacylglucosamine hydrolase) (P43341 whole entry): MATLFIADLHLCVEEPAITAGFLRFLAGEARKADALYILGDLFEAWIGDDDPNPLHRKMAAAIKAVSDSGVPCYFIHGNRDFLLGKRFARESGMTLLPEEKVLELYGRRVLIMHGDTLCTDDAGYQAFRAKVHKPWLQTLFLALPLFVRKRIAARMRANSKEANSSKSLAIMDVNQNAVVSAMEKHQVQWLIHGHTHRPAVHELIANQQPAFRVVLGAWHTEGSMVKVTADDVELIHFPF
Outline: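 LpxH hydrolysis of UDP-2,3-diacylglucosamine to lipid X and UMP; UMP produced is converted to ATP and quantified by luciferase luminescence (UMP/CMP-Glo). Inhibition taken from reduced light output.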

E. coli (ATCC 25922) = assay: Minimal Inhibitory Concentration (MIC) assay, E. coli; type: cell-based; details: Escherichia coli, ATCC25922; E. coli ATCC 25922, CAMHB, 20 hours at 35° C.; read-out: MIC E. coli ATCC 25922
Outline: as §1

| Structure (SMILES) | MIC [1] | IC50 [2] | MIC (E. coli (ATCC 25922)) |
| --- | --- | --- | --- |
| CNC1CC(=O)N(c2ccc(S(=O)(=O)N3CCN(c4cc(C(F)(F)F)cc(Cl)n4)CC3)cc2)C1 (stereo not drawn) [Example 44, 1-[4-[4-[6-chloro-4-(trifluoromethyl)-2-pyridyl]piperazin-1-yl]sulfonylphenyl]-4-(methylamino)pyrrolidin-2-one] | 3.47 µg/mL (≈ 6.7 µM) | 197 nM | 1.73 µg/mL (≈ 3.34 µM) |
| NCCNC1CC(=O)N(c2ccc(S(=O)(=O)N3CCN(c4cc(C(F)(F)F)cc(Cl)n4)CC3)cc2)C1 (stereo not drawn) [Example 45, 4-(2-Aminoethylamino)-1-[4-[4-[6-chloro-4-(trifluoromethyl)-2-pyridyl]piperazin-1-yl]sulfonylphenyl]pyrrolidin-2-one] | 7.29 µg/mL (≈ 13.3 µM) | 45.7 nM | 3.65 µg/mL (≈ 6.67 µM) |
| O=C1CC(NCCO)CN1c1ccc(S(=O)(=O)N2CCN(c3cc(C(F)(F)F)cc(Cl)n3)CC2)cc1 (stereo not drawn) [Example 46, 1-[4-[4-[6-Chloro-4-(trifluoromethyl)-2-pyridyl]piperazin-1-yl]sulfonylphenyl]-4-(2-hydroxyethylamino)pyrrolidin-2-one] | 3.65 µg/mL (≈ 6.66 µM) | 9.12 nM | 1.83 µg/mL (≈ 3.34 µM) |
| O=C1CC(N2C[C@@H](O)[C@@H](O)C2)CN1c1ccc(S(=O)(=O)N2CCN(c3cc(C(F)(F)F)cc(Cl)n3)CC2)cc1 (stereo partly drawn) [Example 48, 1-[4-[4-[6-Chloro-4-(trifluoromethyl)-2-pyridyl]piperazin-1-yl]sulfonylphenyl]-4-[(3S,4R)-3,4-dihydroxypyrrolidin-1-yl]pyrrolidin-2-one] | 3.69 µg/mL (≈ 6.25 µM) | 6.78 nM | 1.84 µg/mL (≈ 3.12 µM) |
| NCC1CN(C2CC(=O)N(c3ccc(S(=O)(=O)N4CCN(c5cc(C(F)(F)F)cc(Cl)n5)CC4)cc3)C2)C1 (stereo not drawn) [Example 49, 4-[3-(Aminomethyl)azetidin-1-yl]-1-[4-[4-[6-chloro-4-(trifluoromethyl)-2-pyridyl]piperazin-1-yl]sulfonylphenyl]pyrrolidin-2-one] | 7.74 µg/mL (≈ 13.5 µM) | 82 nM | 3.87 µg/mL (≈ 6.75 µM) |
| NC1CN(C2CC(=O)N(c3ccc(S(=O)(=O)N4CCN(c5cc(C(F)(F)F)cc(Cl)n5)CC4)cc3)C2)C1 (stereo not drawn) [Example 51, 4-(3-Aminoazetidin-1-yl)-1-[4-[4-[6-chloro-4-(trifluoromethyl)-2-pyridyl]piperazin-1-yl]sulfonylphenyl]pyrrolidin-2-one] | 15.1 µg/mL (≈ 27.1 µM) | 53.7 nM | 3.78 µg/mL (≈ 6.76 µM) |
| O=C1CC(N2CC3(CNC3)C2)CN1c1ccc(S(=O)(=O)N2CCN(c3cc(C(F)(F)F)cc(Cl)n3)CC2)cc1 (stereo not drawn) [Example 52, 1-[4-[4-[6-Chloro-4-(trifluoromethyl)-2-pyridyl]piperazin-1-yl]sulfonylphenyl]-4-(2,6-diazaspiro[3.3]heptan-2-yl)pyrrolidin-2-one] | 17.5 µg/mL (≈ 29.9 µM) | 34.2 nM | 17.5 µg/mL (≈ 29.9 µM) |
| O=C1CC(N2CCN[C@H](CO)C2)CN1c1ccc(S(=O)(=O)N2CCN(c3cc(C(F)(F)F)cc(Cl)n3)CC2)cc1 (stereo partly drawn) [Example 53, 1-[4-[4-[6-Chloro-4-(trifluoromethyl)-2-pyridyl]piperazin-1-yl]sulfonylphenyl]-4-[(3S)-3-(hydroxymethyl)piperazin-1-yl]pyrrolidin-2-one] | 3 µg/mL (≈ 4.97 µM) | 6.63 nM | 2 µg/mL (≈ 3.32 µM) |
| O=C1CC(N2CCN[C@@H](CO)C2)CN1c1ccc(S(=O)(=O)N2CCN(c3cc(C(F)(F)F)cc(Cl)n3)CC2)cc1 (stereo partly drawn) [Example 54, 1-[4-[4-[6-Chloro-4-(trifluoromethyl)-2-pyridyl]piperazin-1-yl]sulfonylphenyl]-4-[(3R)-3-(hydroxymethyl)piperazin-1-yl]pyrrolidin-2-one] | 4 µg/mL (≈ 6.63 µM) | 19.9 nM | 2 µg/mL (≈ 3.32 µM) |
| O=C1CC(N2C[C@@H]3C[C@H]2CN3)CN1c1ccc(S(=O)(=O)N2CCN(c3cc(C(F)(F)F)cc(Cl)n3)CC2)cc1 (stereo partly drawn) [Example 55, 1-[4-[4-[6-Chloro-4-(trifluoromethyl)-2-pyridyl]piperazin-1-yl]sulfonylphenyl]-4-[(1S,4S)-2,5-diazabicyclo[2.2.1]heptan-2-yl]pyrrolidin-2-one] | 7.77 µg/mL (≈ 13.3 µM) | 51.3 nM | 3.88 µg/mL (≈ 6.63 µM) |
| N[C@@H]1CN(C2CC(=O)N(c3ccc(S(=O)(=O)N4CCN(c5cc(C(F)(F)F)cc(Cl)n5)CC4)cc3)C2)C[C@H]1O (stereo partly drawn) [Example 56, 4-[(3R,4R)-3-amino-4-hydroxy-pyrrolidin-1-yl]-1-[4-[4-[6-chloro-4-(trifluoromethyl)-2-pyridyl]piperazin-1-yl]sulfonylphenyl]pyrrolidin-2-one] | 3.91 µg/mL (≈ 6.64 µM) | 13.6 nM | 1.96 µg/mL (≈ 3.33 µM) |
| N[C@@H]1CN(C2CC(=O)N(c3ccc(S(=O)(=O)N4CCN(c5cc(C(F)(F)F)cc(Cl)n5)CC4)cc3)C2)CC[C@H]1O (stereo partly drawn) [Example 57, 4-((3R,4R)-3-amino-4-hydroxypiperidin-1-yl)-1-(4-((4-(6-chloro-4-(trifluoromethyl)pyridin-2-yl)piperazin-1-yl)sulfonyl)phenyl)pyrrolidin-2-one] | 2 µg/mL (≈ 3.32 µM) | 34.8 nM | 2 µg/mL (≈ 3.32 µM) |
| O=C1CC(NC2CNC2)CN1c1ccc(S(=O)(=O)N2CCN(c3cc(C(F)(F)F)cc(Cl)n3)CC2)cc1 (stereo not drawn) [Example 58, 4-(Azetidin-3-ylamino)-1-[4-[4-[6-chloro-4-(trifluoromethyl)-2-pyridyl]piperazin-1-yl]sulfonylphenyl]pyrrolidin-2-one] | 14.9 µg/mL (≈ 26.6 µM) | 28.6 nM | 7.44 µg/mL (≈ 13.3 µM) |
| O=C1CC(NC2CCNC2)CN1c1ccc(S(=O)(=O)N2CCN(c3cc(C(F)(F)F)cc(Cl)n3)CC2)cc1 (stereo not drawn) [Example 59, 1-[4-[4-[6-Chloro-4-(trifluoromethyl)-2-pyridyl]piperazin-1-yl]sulfonylphenyl]-4-(pyrrolidin-3-ylamino)pyrrolidin-2-one] | 7.62 µg/mL (≈ 13.3 µM) | 96 nM | 3.81 µg/mL (≈ 6.65 µM) |
| O=C1CC(NC2CCNCC2)CN1c1ccc(S(=O)(=O)N2CCN(c3cc(C(F)(F)F)cc(Cl)n3)CC2)cc1 (stereo not drawn) [Example 60, 1-[4-[4-[6-Chloro-4-(trifluoromethyl)-2-pyridyl]piperazin-1-yl]sulfonylphenyl]-4-(4-piperidylamino)pyrrolidin-2-one] | 3.9 µg/mL (≈ 6.64 µM) | 8.52 nM | 1.95 µg/mL (≈ 3.32 µM) |
| CC1C(N)CC(=O)N1c1ccc(S(=O)(=O)N2CCN(c3cc(C(F)(F)F)cc(Cl)n3)CC2)cc1 (stereo not drawn) [Example 61, 4-Amino-1-[4-[4-[6-chloro-4-(trifluoromethyl)-2-pyridyl]piperazin-1-yl]sulfonylphenyl]-5-methyl-pyrrolidin-2-one] | 6.47 µg/mL (≈ 12.5 µM) | 50.2 nM | 6.47 µg/mL (≈ 12.5 µM) |
| NCC1CN(c2ccc(S(=O)(=O)N3CCN(c4cc(C(F)(F)F)cc(Cl)n4)CC3)cc2F)C(=O)O1 (stereo not drawn) [Example 63, 5-(Aminomethyl)-3-[4-[4-[6-chloro-4-(trifluoromethyl)-2-pyridyl]piperazin-1-yl]sulfonyl-2-fluoro-phenyl]oxazolidin-2-one] | 7.3 µg/mL (≈ 13.6 µM) | 204 nM | 1.83 µg/mL (≈ 3.4 µM) |
| NCC1CN(c2ccc(S(=O)(=O)N3CCN(c4cc(C(F)(F)F)cc(Cl)n4)CC3)c(F)c2)C(=O)O1 (stereo not drawn) [Example 64, 5-(Aminomethyl)-3-[4-[4-[6-chloro-4-(trifluoromethyl)-2-pyridyl]piperazin-1-yl]sulfonyl-3-fluoro-phenyl]oxazolidin-2-one] | 14.6 µg/mL (≈ 27.1 µM) | 264 nM | 3.65 µg/mL (≈ 6.79 µM) |
| N#CC1CN(c2cc(C(F)(F)F)cc(Cl)n2)CCN1S(=O)(=O)c1ccc(N2CC(N)CC2=O)cc1 (stereo not drawn) [Example 67, 1-[4-(4-Amino-2-oxo-pyrrolidin-1-yl)phenyl]sulfonyl-4-[6-chloro-4-(trifluoromethyl)-2-pyridyl]piperazine-2-carbonitrile] | 13.2 µg/mL (≈ 25 µM) | 149 nM | 6.61 µg/mL (≈ 12.5 µM) |
| NC1CC(=O)N(c2ccc(S(=O)(=O)N3CCN(c4cc(C(F)F)cc(Cl)n4)CC3)cc2)C1 (stereo not drawn) [Example 68, 4-Amino-1-[4-[4-[6-chloro-4-(difluoromethyl)-2-pyridyl]piperazin-1-yl]sulfonylphenyl]pyrrolidin-2-one] | 10.3 µg/mL (≈ 21.3 µM) | 259 nM | 2.59 µg/mL (≈ 5.33 µM) |
| NC1CC(=O)N(c2ccc(S(=O)(=O)N3CCN(c4cc(S(=O)(=O)C5CC5)cc(Cl)n4)CC3)cc2)C1 (stereo not drawn) [Example 69, 4-Amino-1-[4-[4-(6-chloro-4-cyclopropylsulfonyl-2-pyridyl)piperazin-1-yl]sulfonylphenyl]pyrrolidin-2-one] | 6.75 µg/mL (≈ 12.5 µM) | 746 nM | 13.5 µg/mL (≈ 25 µM) |
| NC1CC(=O)N(c2ccc(S(=O)(=O)N3CCN(c4cc(S(=O)(=O)C5CCOCC5)cc(Cl)n4)CC3)cc2)C1 (stereo not drawn) [Example 70, 4-Amino-1-[4-[4-(6-chloro-4-tetrahydropyran-4-ylsulfonyl-2-pyridyl)piperazin-1-yl]sulfonylphenyl]pyrrolidin-2-one] | 15.5 µg/mL (≈ 26.6 µM) | 47.9 nM | 15.5 µg/mL (≈ 26.6 µM) |
| N#CC1(c2cc(Cl)nc(N3CCN(S(=O)(=O)c4ccc(N5CC(N)CC5=O)cc4)CC3)c2)CC1 (stereo not drawn) [Example 71, 1-[2-[4-[4-(4-Amino-2-oxo-pyrrolidin-1-yl)phenyl]sulfonylpiperazin-1-yl]-6-chloro-4-pyridyl]cyclopropanecarbonitrile] | 12.5 µg/mL (≈ 25 µM) | 591 nM | 12.5 µg/mL (≈ 25 µM) |
| NC1CC(=O)N(c2ccc(S(=O)(=O)N3CCN(c4cc(Oc5ccccc5)cc(Cl)n4)CC3)cc2)C1 (stereo not drawn) [Example 72, 4-Amino-1-[4-[4-(6-chloro-4-phenoxy-2-pyridyl)piperazin-1-yl]sulfonylphenyl]pyrrolidin-2-one] | 7.06 µg/mL (≈ 13.4 µM) | 407 nM | 7.06 µg/mL (≈ 13.4 µM) |
